Reference: PMC3961306, “Comparison of the Cancer Gene Targeting and Biochemical Selectivities of All Targeted Kinase Inhibitors Approved for Clinical Use” (PLoS ONE, 2014)

Tests used:
Experiment in all cases: Kinase profiling in a biochemical assay panel (mobility shift assays and ELISA), %-inhibition at 1 μM; selectivity entropy
[1] = biological target: panel of more than 300 wild-type and mutant kinases (313 kinase panel) (Homo sapiens, UniProt O95819); conditions: kinase HGK; compound at 1 μM
[2] = biological target: panel of more than 300 wild-type and mutant kinases (313 kinase panel) (Homo sapiens, UniProt P22455, N535K); conditions: kinase FGFR4(N535K); compound at 1 μM
Sequence of panel of more than 300 wild-type and mutant kinases (313 kinase panel) (Homo sapiens, UniProt P22455, N535K) (P22455 22-802 N535K): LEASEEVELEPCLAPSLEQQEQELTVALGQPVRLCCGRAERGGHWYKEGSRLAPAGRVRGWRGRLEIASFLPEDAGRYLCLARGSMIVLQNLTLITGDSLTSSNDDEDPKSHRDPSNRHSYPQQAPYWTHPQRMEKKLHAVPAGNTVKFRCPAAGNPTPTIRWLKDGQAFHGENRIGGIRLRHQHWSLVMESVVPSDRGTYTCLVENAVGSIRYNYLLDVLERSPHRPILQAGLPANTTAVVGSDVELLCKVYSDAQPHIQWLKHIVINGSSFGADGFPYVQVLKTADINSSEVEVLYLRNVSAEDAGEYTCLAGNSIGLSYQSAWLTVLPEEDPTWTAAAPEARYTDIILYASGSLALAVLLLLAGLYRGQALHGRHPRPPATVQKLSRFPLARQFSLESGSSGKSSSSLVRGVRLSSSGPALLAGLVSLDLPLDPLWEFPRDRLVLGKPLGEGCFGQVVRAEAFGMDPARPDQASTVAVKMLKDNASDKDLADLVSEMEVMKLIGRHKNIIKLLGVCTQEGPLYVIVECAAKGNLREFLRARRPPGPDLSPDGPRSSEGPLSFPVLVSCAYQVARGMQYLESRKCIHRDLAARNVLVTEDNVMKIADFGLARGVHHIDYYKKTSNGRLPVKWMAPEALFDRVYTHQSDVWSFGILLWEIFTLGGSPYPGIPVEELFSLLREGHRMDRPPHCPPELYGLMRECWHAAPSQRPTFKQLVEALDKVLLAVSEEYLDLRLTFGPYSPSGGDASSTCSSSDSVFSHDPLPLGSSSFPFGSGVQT

[3] = biological target: T1, panel of more than 300 wild-type and mutant kinases (313 kinase panel) (Homo sapiens, UniProt Q12851); conditions: kinase MAP4K2; compound at 1 μM
T1 sequence (Q12851 1-820): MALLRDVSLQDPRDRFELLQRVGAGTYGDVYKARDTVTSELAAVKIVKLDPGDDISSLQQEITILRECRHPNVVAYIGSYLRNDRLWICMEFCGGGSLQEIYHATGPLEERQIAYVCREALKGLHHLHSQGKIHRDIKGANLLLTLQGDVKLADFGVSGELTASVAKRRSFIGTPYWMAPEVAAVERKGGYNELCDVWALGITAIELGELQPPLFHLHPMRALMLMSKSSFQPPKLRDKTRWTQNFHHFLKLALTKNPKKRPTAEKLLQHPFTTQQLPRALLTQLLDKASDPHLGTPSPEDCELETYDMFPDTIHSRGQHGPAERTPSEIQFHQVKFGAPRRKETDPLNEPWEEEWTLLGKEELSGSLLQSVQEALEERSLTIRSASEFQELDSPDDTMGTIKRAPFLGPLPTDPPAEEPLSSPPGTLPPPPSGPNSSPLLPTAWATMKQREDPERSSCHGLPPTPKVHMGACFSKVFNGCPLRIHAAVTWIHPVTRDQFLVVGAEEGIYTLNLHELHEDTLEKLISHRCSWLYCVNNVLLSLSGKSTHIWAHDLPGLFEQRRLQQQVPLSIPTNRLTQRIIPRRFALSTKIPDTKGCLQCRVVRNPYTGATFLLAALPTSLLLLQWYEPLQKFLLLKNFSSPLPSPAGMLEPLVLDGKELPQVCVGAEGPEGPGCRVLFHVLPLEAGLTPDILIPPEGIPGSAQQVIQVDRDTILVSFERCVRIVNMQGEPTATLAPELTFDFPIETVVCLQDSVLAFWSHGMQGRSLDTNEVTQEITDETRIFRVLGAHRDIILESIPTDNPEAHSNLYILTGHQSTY

[4] = biological target: panel of more than 300 wild-type and mutant kinases (313 kinase panel) (Homo sapiens, UniProt P27448); conditions: kinase MARK3; compound at 1 μM
Sequence of panel of more than 300 wild-type and mutant kinases (313 kinase panel) (Homo sapiens, UniProt P27448) (P27448 whole entry, change not shown): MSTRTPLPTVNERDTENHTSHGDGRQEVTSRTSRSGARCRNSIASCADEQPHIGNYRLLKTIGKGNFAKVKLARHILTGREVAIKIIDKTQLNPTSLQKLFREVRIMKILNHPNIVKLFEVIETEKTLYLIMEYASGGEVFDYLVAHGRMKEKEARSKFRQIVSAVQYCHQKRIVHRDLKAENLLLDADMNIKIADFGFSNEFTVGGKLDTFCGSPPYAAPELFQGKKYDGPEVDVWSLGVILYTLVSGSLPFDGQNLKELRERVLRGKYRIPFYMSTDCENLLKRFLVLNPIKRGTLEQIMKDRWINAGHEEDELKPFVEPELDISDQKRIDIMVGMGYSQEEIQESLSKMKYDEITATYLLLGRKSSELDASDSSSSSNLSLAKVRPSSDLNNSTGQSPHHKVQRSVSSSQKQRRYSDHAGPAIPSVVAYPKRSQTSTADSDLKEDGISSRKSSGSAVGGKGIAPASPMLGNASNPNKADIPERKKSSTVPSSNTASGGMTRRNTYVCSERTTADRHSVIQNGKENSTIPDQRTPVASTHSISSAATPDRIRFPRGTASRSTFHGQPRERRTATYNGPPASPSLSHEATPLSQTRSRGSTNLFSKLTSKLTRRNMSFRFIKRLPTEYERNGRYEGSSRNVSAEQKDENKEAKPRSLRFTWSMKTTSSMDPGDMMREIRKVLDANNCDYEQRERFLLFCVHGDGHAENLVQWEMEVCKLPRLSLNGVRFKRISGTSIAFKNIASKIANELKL

[5] = biological target: panel of more than 300 wild-type and mutant kinases (313 kinase panel) (Homo sapiens, UniProt P54646); conditions: kinase AMPKα2/β1/γ1; 1 μM compound
[6] = biological target: panel of more than 300 wild-type and mutant kinases (313 kinase panel) (Homo sapiens, UniProt P31751); conditions: kinase AKT2; 1 μM compound
Sequence of panel of more than 300 wild-type and mutant kinases (313 kinase panel) (Homo sapiens, UniProt P31751) (P31751 whole entry, change not shown): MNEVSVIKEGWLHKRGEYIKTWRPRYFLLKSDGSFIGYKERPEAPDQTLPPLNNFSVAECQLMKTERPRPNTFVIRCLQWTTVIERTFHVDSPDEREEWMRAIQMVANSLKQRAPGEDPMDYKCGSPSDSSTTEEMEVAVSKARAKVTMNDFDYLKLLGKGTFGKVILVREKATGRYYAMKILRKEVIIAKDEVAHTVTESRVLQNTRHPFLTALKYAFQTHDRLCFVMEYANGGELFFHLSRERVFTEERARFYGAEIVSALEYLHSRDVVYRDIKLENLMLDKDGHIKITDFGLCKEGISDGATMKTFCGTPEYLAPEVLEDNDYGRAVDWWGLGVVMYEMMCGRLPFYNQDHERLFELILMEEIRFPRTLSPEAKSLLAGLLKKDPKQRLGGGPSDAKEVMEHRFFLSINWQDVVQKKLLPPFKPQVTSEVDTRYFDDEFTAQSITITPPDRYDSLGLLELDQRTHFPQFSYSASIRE

[7] = biological target: T2, panel of more than 300 wild-type and mutant kinases (313 kinase panel) (Homo sapiens, UniProt O14757); conditions: kinase CHK1; 1 μM compound
T2 sequence (O14757 1-476): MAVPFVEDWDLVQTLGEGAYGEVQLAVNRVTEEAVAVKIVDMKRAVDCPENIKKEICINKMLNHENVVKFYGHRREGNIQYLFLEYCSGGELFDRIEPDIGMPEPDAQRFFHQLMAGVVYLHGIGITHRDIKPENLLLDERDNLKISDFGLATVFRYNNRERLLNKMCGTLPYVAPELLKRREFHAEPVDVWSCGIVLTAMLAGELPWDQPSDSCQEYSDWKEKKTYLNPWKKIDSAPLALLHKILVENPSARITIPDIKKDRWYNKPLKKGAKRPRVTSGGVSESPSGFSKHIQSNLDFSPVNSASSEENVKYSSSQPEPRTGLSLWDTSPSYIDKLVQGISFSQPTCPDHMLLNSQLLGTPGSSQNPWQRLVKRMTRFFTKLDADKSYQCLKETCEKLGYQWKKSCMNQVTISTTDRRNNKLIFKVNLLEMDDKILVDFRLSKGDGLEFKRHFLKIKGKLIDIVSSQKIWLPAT

[8] = biological target: panel of more than 300 wild-type and mutant kinases (313 kinase panel) (Homo sapiens, UniProt Q8IU85); conditions: kinase CaMK1δ; 1 μM compound
[9] = biological target: T3, panel of more than 300 wild-type and mutant kinases (313 kinase panel) (Homo sapiens, UniProt Q8IW41); conditions: kinase MAPKAPK5; compound at 1 μM
T3 sequence (Q8IW41 1-473): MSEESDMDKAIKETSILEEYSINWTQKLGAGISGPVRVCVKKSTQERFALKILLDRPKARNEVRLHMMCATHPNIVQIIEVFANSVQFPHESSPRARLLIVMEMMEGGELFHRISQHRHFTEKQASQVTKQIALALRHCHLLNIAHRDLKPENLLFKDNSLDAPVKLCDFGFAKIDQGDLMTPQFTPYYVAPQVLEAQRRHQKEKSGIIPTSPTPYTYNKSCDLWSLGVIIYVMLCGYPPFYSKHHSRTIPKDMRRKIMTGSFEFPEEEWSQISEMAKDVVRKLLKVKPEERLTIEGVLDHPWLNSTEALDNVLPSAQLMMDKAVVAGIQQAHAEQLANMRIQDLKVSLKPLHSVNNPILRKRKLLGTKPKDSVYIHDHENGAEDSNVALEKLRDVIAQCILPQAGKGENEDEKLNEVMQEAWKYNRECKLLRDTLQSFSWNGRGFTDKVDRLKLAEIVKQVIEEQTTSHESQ

Row | SMILES | %-inhibition of HGK [1] [%] | %-inhibition of FGFR4(N535K) [2] [%] | %-inhibition of MAP4K2 [3] [%] | %-inhibition of MARK3 [4] [%] | %-inhibition, AMPKα2/β1/γ1 [5] [%] | %-inhibition, AKT2 [6] [%] | %-inhibition, CHK1 [7] [%] | %-inhibition, CaMK1δ [8] [%] | %-inhibition of MAPKAPK5 [9] [%]
1 | COc1cc2nccc(Oc3ccc(NC(=O)C4(C(=O)Nc5ccc(F)cc5)CC4)cc3)c2cc1OC [cabozantinib] | 21 | 39 | 35 | -3 | 1.75 | -3.78 | 4.42 | -1.37 | -5
2 | CO[C@H]1C[C@@H]2CC[C@@H](C)[C@@](O)(O2)C(=O)C(=O)N2CCCC[C@H]2C(=O)O[C@H]([C@H](C)C[C@@H]2CC[C@@H](OCCO)[C@H](OC)C2)CC(=O)[C@H](C)/C=C(\C)[C@@H](O)[C@@H](OC)C(=O)[C@H](C)C[C@H](C)/C=C/C=C/C=C/1C [everolimus] | 0.896 | 9 | -7 | -4 | -6 | -3.78 | 4 | -8 | -9
3 | O=S(=O)(c1cccc2cnccc12)N1CCCNCC1 [fasudil] | -1.82 | 0.156 | 4 | 13 | 5 | -8 | -11 | -4 | -1.65
4 | CNC(=O)c1cc(Oc2ccc(NC(=O)Nc3ccc(Cl)c(C(F)(F)F)c3)c(F)c2)ccn1 [regorafenib] | 53 | 62 | 46 | -3.48 | 16 | -4 | -3 | -5.29 | -9
5 | CO[C@H]1C[C@@H]2CC[C@@H](C)[C@@](O)(O2)C(=O)C(=O)N2CCCC[C@H]2C(=O)O[C@H]([C@H](C)C[C@@H]2CC[C@@H](OC(=O)C(C)(CO)CO)[C@H](OC)C2)CC(=O)[C@H](C)/C=C(\C)[C@@H](O)[C@@H](OC)C(=O)[C@H](C)C[C@H](C)/C=C/C=C/C=C/1C [temsirolimus] | -0.299 | 9 | -3 | -0.859 | -4 | -1.77 | 4.42 | -7 | -9
6 | CC(=O)Nc1cccc(-n2c(=O)n(C3CC3)c(=O)c3c(Nc4ccc(I)cc4F)n(C)c(=O)c(C)c32)c1 [trametinib] | -3.71 | -5.47 | 4 | -3.21 | 1.21 | -8 | -0.719 | -3.3 | -2.22
7 | CCCS(=O)(=O)Nc1ccc(F)c(C(=O)c2c[nH]c3ncc(-c4ccc(Cl)cc4)cc23)c1F [vemurafenib] | 26 | 9 | 43 | -0.226 | 6.49 | -3 | 4 | -7 | 12
